One test concerns A549. As to the kind of experiment: Cytotoxicity against human A549 cells assessed as cell growth inhibition after 48 hrs by MTT assay. It counts as functional, cell-based. Particulars: A549, 48 h. On the technique in general: Tetrazolium assays rely on reduction of a dye to a coloured formazan, in cell work by metabolically active cells.
A further test has as its system HCT-116. As to the kind of experiment: Cytotoxicity against human HCT-116 cells assessed as cell growth inhibition after 48 hrs by MTT assay. It is filed as functional, cell-based. The conditions noted are these: HCT-116, 48 h.
A further test relates to PC-3. As to the kind of experiment: Cytotoxicity against human PC-3 cells assessed as cell growth inhibition after 48 hrs by MTT assay. It counts as functional, cell-based. Particulars: PC-3, 48 h.
Another test relates to RT-112. Put plainly: Cytotoxicity against human RT-112 cells assessed as cell growth inhibition after 48 hrs by MTT assay. It counts as functional, cell-based. The conditions noted are these: RT-112, 48 h.
A short description of test [1]: Antiangiogenic activity in endothelial cells assessed as inhibition of tube formation incubated for 18 hrs by matrigel-based inverted microscopic analysis. It is filed as functional. Particulars: Endothelial cell.

pIC50: −log10 of the molar value. A value given as a limit tells only on which side of the number the result lay.

The pIC50 is the IC50 on a negative log10 scale, so that one unit is a factor of ten. As to `CC(=O)OC[C@@]12[C@H](O)[C@H](O)[C@]3(C)C(=CC[C@@H]4[C@@]5(C)CC[C@H](O[C@@H]6OC[C@H](O[C@@H]7O[C@H](CO)[C@@H](O)[C@H](O)[C@H]7O[C@@H]7OC[C@@H](O)[C@H](O)[C@H]7O)[C@H](O)[C@H]6O[C@@H]6O[C@H](CO)[C@@H](O)[C@H](O)[C@H]6O)C(C)(C)[C@@H]5CC[C@]43C)[C@@H]1CC(C)(C)[C@@H](OC(C)=O)[C@@H]2O`, the pIC50 with A549 is below 5.00; in the test on HCT-116, below 5.00; in the test on PC-3, below 5.00; with RT-112 it was below 5.00; in test [1], 4.80.

For `CC1(C)C[C@H](O)[C@]2(CO)[C@H](O)[C@H](O)[C@]3(C)C(=CC[C@@H]4[C@@]5(C)CC[C@H](O[C@@H]6OC[C@H](O[C@@H]7O[C@H](CO)[C@@H](O)[C@H](O)[C@H]7O[C@@H]7OC[C@@H](O)[C@H](O)[C@H]7O)[C@H](O)[C@H]6O[C@@H]6O[C@H](CO)[C@@H](O)[C@H](O)[C@H]6O)C(C)(C)[C@@H]5CC[C@]43C)[C@@H]2C1`, the pIC50 is below 5.00 with A549; below 5.00 with HCT-116; below 5.00 in the test on PC-3; below 5.00 with RT-112; 4.34 in test [1].

For `CC(=O)O[C@H]1C(=O)[C@@]2(C)[C@H]([C@H](OC(=O)c3ccccc3)[C@]3(O)C[C@H](OC(=O)[C@H](O)[C@@H](NC(=O)c4ccccc4)c4ccccc4)C(C)=C1C3(C)C)[C@]1(OC(C)=O)CO[C@@H]1C[C@@H]2O` [PACLITAXEL], the pIC50 with A549 is 6.15; in the test on PC-3 it was 7.40; in the test on RT-112, 7.15.

On to `CC(=O)OC[C@@]12[C@H](O)C[C@]3(C)C(=CC[C@@H]4[C@@]5(C)CC[C@H](O[C@@H]6OC[C@H](O[C@@H]7O[C@H](CO)[C@@H](O)[C@H](O)[C@H]7O[C@@H]7OC[C@@H](O)[C@H](O)[C@H]7O)[C@H](O)[C@H]6O[C@@H]6O[C@H](CO)[C@@H](O)[C@H](O)[C@H]6O)C(C)(C)[C@@H]5CC[C@]43C)[C@@H]1CC(C)(C)[C@@H](OC(C)=O)[C@@H]2O`, for which the pIC50 was 5.05 in the test with A549; 5.17 in the test with HCT-116; 5.00 with PC-3; below 5.00 with RT-112; 5.28 in test [1].

As for `COc1ccc(/C=C\c2cc(OC)c(OC)c(OC)c2)cc1O` [COMBRETASTATIN A4], the pIC50 in test [1] was 6.43.

For `CC(=O)OC[C@@]12[C@H](O)[C@H](O)[C@]3(C)C(=CC[C@@H]4[C@@]5(C)CC[C@H](O[C@@H]6OC[C@H](O[C@@H]7O[C@H](CO)[C@@H](O)[C@H](O)[C@H]7O[C@@H]7OC[C@@H](O)[C@H](O)[C@H]7O)[C@H](O)[C@H]6O[C@@H]6O[C@H](CO)[C@@H](O)[C@H](O)[C@H]6O)C(C)(C)[C@@H]5CC[C@]43C)[C@@H]1CC(C)(C)C[C@@H]2O`, the negative logarithm of the IC50 (pIC50) in the test on A549 was below 5.00; in the test with HCT-116, 5.01; in the test on PC-3 it was below 5.00; in the test with RT-112, 5.11; in test [1], 4.45.

Regarding `CC(=O)O[C@@H]1C[C@]2(C)C(=CC[C@@H]3[C@@]4(C)CC[C@H](O[C@@H]5OC[C@H](O[C@@H]6O[C@H](CO)[C@@H](O)[C@H](O)[C@H]6O[C@@H]6OC[C@@H](O)[C@H](O)[C@H]6O)[C@H](O)[C@H]5O[C@@H]5O[C@H](CO)[C@@H](O)[C@H](O)[C@H]5O)C(C)(C)[C@@H]4CC[C@]32C)[C@@H]2CC(C)(C)C[C@H](O)[C@]12CO`, the pIC50 in the test with A549 was below 5.00; in the test with HCT-116, below 5.00; in the test with PC-3, below 5.00; in the test with RT-112 it was below 5.00; in test [1], 4.64.

For `CC(=O)O[C@H]1CC(C)(C)C[C@H]2C3=CC[C@@H]4[C@@]5(C)CC[C@H](O[C@@H]6OC[C@H](O[C@@H]7O[C@H](CO)[C@@H](O)[C@H](O)[C@H]7O[C@@H]7OC[C@@H](O)[C@H](O)[C@H]7O)[C@H](O)[C@H]6O[C@@H]6O[C@H](CO)[C@@H](O)[C@H](O)[C@H]6O)C(C)(C)[C@@H]5CC[C@@]4(C)[C@]3(C)[C@@H](O)[C@@H](O)[C@@]12CO`, the pIC50 with A549 was 5.21; in the test with HCT-116 it was 5.11; in the test on PC-3 it was 5.03; in the test with RT-112, 5.19; in test [1], 5.77.

Turning to `CC(=O)O[C@@H]1[C@H](O)[C@]2(C)C(=CC[C@@H]3[C@@]4(C)CC[C@H](O[C@@H]5OC[C@H](O[C@@H]6O[C@H](CO)[C@@H](O)[C@H](O)[C@H]6O[C@@H]6OC[C@@H](O)[C@H](O)[C@H]6O)[C@H](O)[C@H]5O[C@@H]5O[C@H](CO)[C@@H](O)[C@H](O)[C@H]5O)C(C)(C)[C@@H]4CC[C@]32C)[C@@H]2CC(C)(C)C[C@H](O)[C@]12CO`, the negative-log IC50 (pIC50) with A549 was below 5.00; with HCT-116, below 5.00; with PC-3 it was below 5.00; with RT-112, below 5.00; in test [1] it was 5.29.

Turning to `CC(=O)O[C@H]1[C@H](OC(C)=O)[C@]2(CO)[C@H](O)[C@H](O)[C@]3(C)C(=CC[C@@H]4[C@@]5(C)CC[C@H](O[C@@H]6OC[C@H](O[C@@H]7O[C@H](CO)[C@@H](O)[C@H](O)[C@H]7O[C@@H]7OC[C@@H](O)[C@H](O)[C@H]7O)[C@H](O)[C@H]6O[C@@H]6O[C@H](CO)[C@@H](O)[C@H](O)[C@H]6O)C(C)(C)[C@@H]5CC[C@]43C)[C@@H]2CC1(C)C`, the pIC50 was 5.06 with A549; below 5.00 in the test on HCT-116; below 5.00 with PC-3; 5.14 in the test on RT-112; 5.49 in test [1].
